Measured values: the supplement of paper PMC11061612

Legend:
[1] = system: OCI-AML3 (Acute Myeloid Leukemia); assay: combination Emax (second highest fraction inhibited in the dose matrix, 72 h); higher = more inhibition; extreme values may be limits of the assay
In short: (§1)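 Cell lines in DMEM/F12 or RPMI with 10% FBS were plated in 1536-well plates, held 24 hours at 37°C, 5% CO2, then given two-drug dose matrices for 72 hours (DMSO typically 0.2%). Viability was read by CellTiter-Glo 2.0 luminescence and scaled as inhibition from 0 (vehicle wells) to 1 (blank wells). Combination Emax is the second-highest inhibition in the matrix; Bliss excess is observed combination effect minus expected EA + EB − EA·EB, EA and EB being single-agent effects.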

[2] = system: PC-3 (Prostate Carcinoma); assay: Bliss excess, mean over the matrix (fraction); higher = more synergy
In short: as §1

[3] = system: OCI-AML3 (Acute Myeloid Leukemia); assay: as above
In short: as §1

M059J (Glioblastoma) = assay: as above
In short: as §1
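Throughout, for Bliss excess, mean over the matrix: after 72 h of two-drug dosing.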

SMILES | combination Emax [1] | Bliss excess [2] | Bliss excess [3] | Bliss excess (M059J (Glioblastoma))
C[C@@H](c1ccc2nccn2c1)n1nnc2ncc(-c3cnn(C)c3)nc21 [Savolitinib] + Cc1c2c(nn1C)CSCc1cc(n(C)n1)CSc1cc(c3ccccc3c1)OCCCc1c(C(=O)O)n(C)c3c-2c(Cl)ccc13 [AZD5991] (first compound max 1 µM, 7x7, partner max 1 µM) | 0.967 | -0.0402 | -0.0103 | -0.0289
COc1nnc2ccc(N3CCC(c4ccc(OCCN5CCN(C)C(=O)[C@H]5C)cc4)CC3)nn12 [AZD5153] + CCN(CCO)CCCOc1ccc2c(Nc3cc(CC(=O)Nc4cccc(F)c4)[nH]n3)ncnc2c1 [AZD2811] (first compound max 1 µM, 7x7, partner max 1 µM) | 1 | -0.0257 | 0.05 | -0.0225
NC1(C(=O)N[C@@H](CCO)c2ccc(Cl)cc2)CCN(c2ncnc3[nH]ccc23)CC1 [Capivasertib] + C[C@@H]1COCCN1C2=NC(=NC(=C2)C3(CC3)[S@](=N)(=O)C)C4=C5C=CNC5=NC=C4 [AZD6738] (first compound max 10 µM, 7x7, partner max 10 µM) | 0.891 | -0.0389 | -0.0224 | -0.0366
Cc1nc(Nc2ncc(C(=O)Nc3c(C)cccc3Cl)s2)cc(N2CCN(CCO)CC2)n1 [Dasatinib] + CC(=O)Nc1cccc(-n2c(=O)n(C3CC3)c(=O)c3c(Nc4ccc(I)cc4F)n(C)c(=O)c(C)c32)c1 [Trametinib] (first compound max 2 µM, 7x7, partner max 1 µM) | 0.942 | -0.0759 | -0.0745 | -0.0946
COc1nnc2ccc(N3CCC(c4ccc(OCCN5CCN(C)C(=O)[C@H]5C)cc4)CC3)nn12 [AZD5153] + C[C@@H]1COCCN1C2=NC(=NC(=C2)C3(CC3)[S@](=N)(=O)C)C4=C5C=CNC5=NC=C4 [AZD6738] (first compound max 1 µM, 7x7, partner max 10 µM) | 1 | 0.0034 | -0.0454 | -0.0647
COc1nnc2ccc(N3CCC(c4ccc(OCCN5CCN(C)C(=O)[C@H]5C)cc4)CC3)nn12 [AZD5153] + Cn1cnc2c(F)c(Nc3ccc(Br)cc3Cl)c(C(=O)NOCCO)cc21 [Selumetinib] (first compound max 1 µM, 7x7, partner max 10 µM) | 1 | -0.0598 | -0.0046 | -0.0635
NC1(C(=O)N[C@@H](CCO)c2ccc(Cl)cc2)CCN(c2ncnc3[nH]ccc23)CC1 [Capivasertib] + CC(C)n1c(=O)n(C)c2cnc3cc(F)c(-c4ccc(OCCCN5CCCCC5)nc4)cc3c21 [AZD1390] (first compound max 10 µM, 7x7, partner max 0.3 µM) | 0.37 | -0.0345 | -0.11 | 0.0135
NC1(C(=O)N[C@@H](CCO)c2ccc(Cl)cc2)CCN(c2ncnc3[nH]ccc23)CC1 [Capivasertib] + COc1nnc2ccc(N3CCC(c4ccc(OCCN5CCN(C)C(=O)[C@H]5C)cc4)CC3)nn12 [AZD5153] (first compound max 10 µM, 7x7, partner max 1 µM) | 1 | -0.0242 | -0.014 | -0.0266
CC(=O)c1c(C)c2cnc(Nc3ccc(N4CCNCC4)cn3)nc2n(C2CCCC2)c1=O [Palbociclib] + Cc1c2c(nn1C)CSCc1cc(n(C)n1)CSc1cc(c3ccccc3c1)OCCCc1c(C(=O)O)n(C)c3c-2c(Cl)ccc13 [AZD5991] (first compound max 10 µM, 7x7, partner max 1 µM) | 1 | -0.0501 | 0.0376 | -0.0303
COc1nnc2ccc(N3CCC(c4ccc(OCCN5CCN(C)C(=O)[C@H]5C)cc4)CC3)nn12 [AZD5153] + C=CCn1c(=O)c2cnc(Nc3ccc(N4CCN(C)CC4)cc3)nc2n1-c1cccc(C(C)(C)O)n1 [AZD1775] (first compound max 1 µM, partner max 1 µM) | 1 | -0.0118 | -0.012 | -0.106
CC(=O)c1c(C)c2cnc(Nc3ccc(N4CCNCC4)cn3)nc2n(C2CCCC2)c1=O [Palbociclib] + CC1(C)CCC(CN2CCN(c3ccc(C(=O)NS(=O)(=O)c4ccc(NCC5CCOCC5)c([N+](=O)[O-])c4)c(Oc4cnc5[nH]ccc5c4)c3)CC2)=C(c2ccc(Cl)cc2)C1 [Venetoclax] (first compound max 10 µM, 7x7, partner max 1 µM) | 0.585 | -0.0582 | -0.0679 | -0.0511
